Source: patent US20260008862A1, “Bispecific Anti-BCMA x Anti-CD3 Antibodies and Uses Thereof” (Regeneron Pharmaceuticals, Inc., priority 2018, published 2026)

How the values were obtained:
[1] = tested on: BCMA-expressing NCI-H929 tumors; assay: NCI-H929 + PBMC xenogenic tumor model, immediate treatment, 4 mg/kg (Example 10); format: in vivo, mouse
Protocol: To determine the in vivo efficacy of BCMA×CD3 bispecific antibodies (Abs), a xenogenic tumor study was performed. Immunodeficient NOD.Cg-Prkdc^scidIl2rg^tm1Wji/SzJ (NSG) mice were subcutaneously implanted with a mixture of 10×10^6 BCMA-expressing NCI-H929 multiple myeloma cells and 0.5×10^6 human peripheral blood mononuclear cells (PBMC) isolated from a normal donor. […] The mice were administered Abs twice per week for a total of three weeks, and tumor growth was assessed over 40 days. While BCMA^+ tumors grew similarly in the vehicle-, isotype control-, and CD3-binding control-treated mice, both BCMA×CD3 Abs that were tested prevented the growth of tumors in vivo.
Implantation and measurement of syngeneic tumors: NSG mice were subcutaneously implanted with a mixture of 10×10^6 BCMA-expressing NCI-H929 multiple myeloma cells and 0.5×10^6 PBMC derived from a normal donor. […] The mice were administered Abs twice per week for a total of three weeks. Tumor growth was measured with calipers twice per week for the duration of the experiment. Mice were sacrificed 40 days after tumor implantation.
Calculation of syngeneic tumor growth and inhibition: In order to determine tumor volume by external caliper, the greatest longitudinal diameter (length in mm) and the greatest transverse diameter (width in mm) were determined. Tumor volumes based on caliper measurements were calculated by the formula: Volume (mm^3)=(length×width^2)/2.

[2] = tested on: BCMA-expressing MOLP-8 tumors; assay: MOLP-8 + PBMC subcutaneous xenogenic tumor model, dose response (Example 13); format: in vivo, mouse
Protocol: To determine the in vivo efficacy of anti-BCMA×anti-CD3 bispecific antibodies (Abs), a xenogenic tumor study was performed. Immunodeficient NOD.Cg-Prkdc^scidIl2rg^tm1Wji/SzJ (NSG) mice were subcutaneously implanted with a mixture of 5×10^6 BCMA-expressing MOLP-8 human multiple myeloma tumor cells and 1×10^6 human peripheral blood mononuclear cells (PBMC) isolated from a normal, healthy donor. […] The mice were administered these Abs twice per week for a total of seven doses, and tumor growth was assessed over 56 days. While the BCMA^+ MOLP-8 tumors grew similarly in the vehicle- and CD3-binding control-treated mice, both BCMA×CD3 Abs that were tested prevented the growth of tumors in a dose-dependent manner in vivo.
Implantation and measurement of xenogenic tumors: NSG mice were subcutaneously implanted with a mixture of 5×10^6 BCMA-expressing MOLP-8 multiple myeloma cells and 1×10^6 PBMC derived from a normal, healthy donor. […] The mice were administered Abs twice per week for a total of seven doses. Tumor growth was measured by caliper twice per week for the duration of the experiment.
Calculation of xenogenic tumor growth and inhibition: In order to determine tumor volume by external caliper, the greatest longitudinal diameter (length in mm) and the greatest transverse diameter (width in mm) were determined. Tumor volumes based on caliper measurements were calculated by the formula: Volume (mm^3)=(length×width^2)/2.

[3] = tested on: Jurkat/NFATLuc.3C7 cells + MM1-S cells; assay: Jurkat/NFATLuc reporter bioassay with MM1-S cells; format: cell-based; conditions: highest RLU / lowest RLU
Protocol: Activity of the anti-BCMA×anti-CD3 bispecific antibodies were assessed in a Jurkat/NFATLuc reporter bioassay utilizing several cell lines with varying levels of BCMA surface expression. The Jurkat cells were engineered to express an NFAT-luciferase reporter (Jurkat/NFATLuc.3C7), and 50,000 Jurkat reporter cells were combined with 50,000 BCMA positive (Daudi, MM1-S, NCI-H929, OPM-2, RPMI-8226, MOLP-8, or Raji) or BCMA negative (HEK293) cells in Thermo Nunclon delta 96 well white microwell plates (Thermo Scientific, Cat #136102) in 50 ul of assay media (RPMI media with 10% FBS and 1% P/S/G). Three-fold serial dilutions of the BCMA×CD3 bispecific antibodies (mAb25441 D or mAb25442D), or a bivalent anti-BCMA antibody (mAb21581) were immediately added in 50 μL of assay buffer. The plates were gently agitated and incubated in a 37° C., 5% CO2 incubator for 4-6 hours. NFAT-Luciferase activity was determined using Promega One-Glo (Cat #E6130) and a Perkin Elmer Envision plate reader. RLU were plotted in GraphPad Prism using a four-parameter logistic equation over a 12-point response curve to calculate EC50 values. […] The signal to noise (S:N) is determined by taking the ratio of the highest RLU on the curve to the lowest.

REGN5458: anti-BCMA×anti-CD3 bispecific antibody: BCMA HCVR of mAb21581 (SEQ 66), CD3 HCVR of mAb7221G (SEQ 90), common LCVR SEQ 82
Average Tumor Size (mm3) ± SEM on Day 4 [1]: 39.5 ± 9.1 mm3
Average Tumor Size (mm3) ± SEM on Day 7 [1]: 0 ± 0 mm3
Average Tumor Size (mm3) ± SEM on Day 11 [1]: 0 ± 0 mm3
Average Tumor Size (mm3) ± SEM on Day 14 [1]: 0 ± 0 mm3
Average Tumor Size (mm3) ± SEM on Day 18 [1]: 0 ± 0 mm3
Average Tumor Size (mm3) ± SEM on Day 21 [1]: 0 ± 0 mm3
Average Tumor Size (mm3) ± SEM on Day 28 [1]: 0 ± 0 mm3
Average Tumor Size (mm3) ± SEM on Day 40 [1]: 0 ± 0 mm3
Average Tumor Size (mm3) ± SEM on Day 3 ([2]; 0.04 mg/kg): 9.3 ± 2.4 mm3
Average Tumor Size (mm3) ± SEM on Day 7 ([2]; 0.04 mg/kg): 18.3 ± 5.0 mm3
Average Tumor Size (mm3) ± SEM on Day 10 ([2]; 0.04 mg/kg): 73.9 ± 25.7 mm3
Average Tumor Size (mm3) ± SEM on Day 14 ([2]; 0.04 mg/kg): 255.4 ± 79.7 mm3
Average Tumor Size (mm3) ± SEM on Day 17 ([2]; 0.04 mg/kg): 494.3 ± 144.3 mm3
Average Tumor Size (mm3) ± SEM on Day 21 ([2]; 0.04 mg/kg): 1373.0 ± 366.6 mm3
Average Tumor Size (mm3) ± SEM on Day 23 ([2]; 0.04 mg/kg): 1882.3 ± 551.5 mm3
Average Tumor Size (mm3) ± SEM on Day 28 ([2]; 0.04 mg/kg): 2542.5 ± 613.3 mm3
Average Tumor Size (mm3) ± SEM on Day 31 ([2]; 0.04 mg/kg): 2906.1 ± 532.6 mm3
Average Tumor Size (mm3) ± SEM on Day 35 ([2]; 0.04 mg/kg): 3538.0 ± 0.0 mm3
Average Tumor Size (mm3) ± SEM on Day 3 ([2]; 0.4 mg/kg): 13.5 ± 1.5 mm3
Average Tumor Size (mm3) ± SEM on Day 10 ([2]; 0.4 mg/kg): 0 ± 0 mm3
Average Tumor Size (mm3) ± SEM on Day 14 ([2]; 0.4 mg/kg): 0 ± 0 mm3
Average Tumor Size (mm3) ± SEM on Day 17 ([2]; 0.4 mg/kg): 1.7 ± 1.7 mm3
Average Tumor Size (mm3) ± SEM on Day 21 ([2]; 0.4 mg/kg): 5.3 ± 5.3 mm3
Average Tumor Size (mm3) ± SEM on Day 23 ([2]; 0.4 mg/kg): 9.7 ± 9.7 mm3
Average Tumor Size (mm3) ± SEM on Day 28 ([2]; 0.4 mg/kg): 47.4 ± 47.4 mm3
Average Tumor Size (mm3) ± SEM on Day 31 ([2]; 0.4 mg/kg): 104.7 ± 92.6 mm3
Average Tumor Size (mm3) ± SEM on Day 35 ([2]; 0.4 mg/kg): 375.1 ± 307.5 mm3
Average Tumor Size (mm3) ± SEM on Day 42 ([2]; 0.4 mg/kg): 968.8 ± 689.2 mm3
Average Tumor Size (mm3) ± SEM on Day 56 ([2]; 0.4 mg/kg): 1742.4 ± 635.2 mm3
Average Tumor Size (mm3) ± SEM on Day 3 ([2]; 4 mg/kg): 12.5 ± 1.3 mm3
Average Tumor Size (mm3) ± SEM on Day 7 ([2]; 4 mg/kg): 0 ± 0 mm3
Average Tumor Size (mm3) ± SEM on Day 10 ([2]; 4 mg/kg): 0 ± 0 mm3
Average Tumor Size (mm3) ± SEM on Day 14 ([2]; 4 mg/kg): 0 ± 0 mm3
Average Tumor Size (mm3) ± SEM on Day 17 ([2]; 4 mg/kg): 14.5 ± 7.3 mm3
Average Tumor Size (mm3) ± SEM on Day 21 ([2]; 4 mg/kg): 102.7 ± 66.2 mm3
Average Tumor Size (mm3) ± SEM on Day 23 ([2]; 4 mg/kg): 193.3 ± 117.7 mm3
Average Tumor Size (mm3) ± SEM on Day 28 ([2]; 4 mg/kg): 627.4 ± 318.1 mm3
Average Tumor Size (mm3) ± SEM on Day 31 ([2]; 4 mg/kg): 1018.5 ± 498.3 mm3
Average Tumor Size (mm3) ± SEM on Day 35 ([2]; 4 mg/kg): 1342.9 ± 629.6 mm3
Average Tumor Size (mm3) ± SEM on Day 42 ([2]; 4 mg/kg): 2363.0 ± 890.2 mm3
Average Tumor Size (mm3) ± SEM on Day 49 ([2]; 4 mg/kg, Day 49): 1683.5 ± 1683.5 mm3
Average Tumor Size (mm3) ± SEM on Day 56 ([2]; 4 mg/kg): 3108.1 ± 3108.1 mm3
S:N [3]: 165

REGN5459: anti-BCMA×anti-CD3 bispecific antibody: BCMA HCVR of mAb21581 (SEQ 66), CD3 HCVR of mAb7221G20 (SEQ 98), common LCVR SEQ 82
Average Tumor Size (mm3) ± SEM on Day 4 [1]: 26.5 ± 6.2 mm3
Average Tumor Size (mm3) ± SEM on Day 7 [1]: 0 ± 0 mm3
Average Tumor Size (mm3) ± SEM on Day 11 [1]: 0 ± 0 mm3
Average Tumor Size (mm3) ± SEM on Day 14 [1]: 0 ± 0 mm3
Average Tumor Size (mm3) ± SEM on Day 18 [1]: 0 ± 0 mm3
Average Tumor Size (mm3) ± SEM on Day 21 [1]: 0 ± 0 mm3
Average Tumor Size (mm3) ± SEM on Day 28 [1]: 0 ± 0 mm3
Average Tumor Size (mm3) ± SEM on Day 40 [1]: 0 ± 0 mm3
Average Tumor Size (mm3) ± SEM on Day 3 ([2]; 0.04 mg/kg): 11.7 ± 2.1 mm3
Average Tumor Size (mm3) ± SEM on Day 7 ([2]; 0.04 mg/kg): 37.0 ± 5.7 mm3
Average Tumor Size (mm3) ± SEM on Day 10 ([2]; 0.04 mg/kg): 104 ± 23.0 mm3
Average Tumor Size (mm3) ± SEM on Day 14 ([2]; 0.04 mg/kg): 356.7 ± 84.6 mm3
Average Tumor Size (mm3) ± SEM on Day 17 ([2]; 0.04 mg/kg): 645.6 ± 140.9 mm3
Average Tumor Size (mm3) ± SEM on Day 21 ([2]; 0.04 mg/kg): 1442.4 ± 310.7 mm3
Average Tumor Size (mm3) ± SEM on Day 23 ([2]; 0.04 mg/kg): 2124.4 ± 444.1 mm3
Average Tumor Size (mm3) ± SEM on Day 28 ([2]; 0.04 mg/kg): 1939.3 ± 840.6 mm3
Average Tumor Size (mm3) ± SEM on Day 31 ([2]; 0.04 mg/kg): 2688.7 ± 1176.6 mm3
Average Tumor Size (mm3) ± SEM on Day 35 ([2]; 0.04 mg/kg): 612.1 ± 0 mm3
Average Tumor Size (mm3) ± SEM on Day 3 ([2]; 0.4 mg/kg): 14.0 ± 1.6 mm3
Average Tumor Size (mm3) ± SEM on Day 7 ([2]; 0.4 mg/kg): 0 ± 0 mm3
Average Tumor Size (mm3) ± SEM on Day 10 ([2]; 0.4 mg/kg): 0 ± 0 mm3
Average Tumor Size (mm3) ± SEM on Day 14 ([2]; 0.4 mg/kg): 0 ± 0 mm3
Average Tumor Size (mm3) ± SEM on Day 17 ([2]; 0.4 mg/kg): 0 ± 0 mm3
Average Tumor Size (mm3) ± SEM on Day 21 ([2]; 0.4 mg/kg): 0 ± 0 mm3
Average Tumor Size (mm3) ± SEM on Day 23 ([2]; 0.4 mg/kg): 0 ± 0 mm3
Average Tumor Size (mm3) ± SEM on Day 28 ([2]; 0.4 mg/kg): 0 ± 0 mm3
Average Tumor Size (mm3) ± SEM on Day 31 ([2]; 0.4 mg/kg): 0 ± 0 mm3
Average Tumor Size (mm3) ± SEM on Day 35 ([2]; 0.4 mg/kg): 0 ± 0 mm3
Average Tumor Size (mm3) ± SEM on Day 42 ([2]; 0.4 mg/kg): 0 ± 0 mm3
Average Tumor Size (mm3) ± SEM on Day 56 ([2]; 0.4 mg/kg): 0 ± 0 mm3
Average Tumor Size (mm3) ± SEM on Day 3 ([2]; 4 mg/kg): 12.9 ± 1.3 mm3
Average Tumor Size (mm3) ± SEM on Day 7 ([2]; 4 mg/kg): 0.6 ± 0.6 mm3
Average Tumor Size (mm3) ± SEM on Day 10 ([2]; 4 mg/kg): 0 ± 0 mm3
Average Tumor Size (mm3) ± SEM on Day 14 ([2]; 4 mg/kg): 0 ± 0 mm3
Average Tumor Size (mm3) ± SEM on Day 17 ([2]; 4 mg/kg): 0 ± 0 mm3
Average Tumor Size (mm3) ± SEM on Day 21 ([2]; 4 mg/kg): 0 ± 0 mm3
Average Tumor Size (mm3) ± SEM on Day 23 ([2]; 4 mg/kg): 0 ± 0 mm3
Average Tumor Size (mm3) ± SEM on Day 28 ([2]; 4 mg/kg): 1.9 ± 1.9 mm3
Average Tumor Size (mm3) ± SEM on Day 31 ([2]; 4 mg/kg): 3.8 ± 3.0 mm3
Average Tumor Size (mm3) ± SEM on Day 35 ([2]; 4 mg/kg): 9.3 ± 7.5 mm3
Average Tumor Size (mm3) ± SEM on Day 42 ([2]; 4 mg/kg): 12.8 ± 12.8 mm3
Average Tumor Size (mm3) ± SEM on Day 56 ([2]; 4 mg/kg): 17.2 ± 17.2 mm3
S:N [3]: 120
